Measurements reported in ChEMBL document CHEMBL2069247, “A highly sensitive fluorescent viscosity sensor” (Bioorg Med Chem Lett, 2012).

Columns and labels:
HeLa [1] = test: Drug uptake in human HeLa cells measured immediately; format: ADME, cell-based
HeLa [2] = test: Drug uptake in human HeLa cells at 5 uM after 2 hrs by fluorescence microscopic analysis; format: ADME, cell-based

Cn1ccc2ccc(-c3ccc4c(-c5ccccc5C(=O)O)c5ccc(=O)cc-5oc4c3)cc21
Drug uptake (HeLa [1]): Active | Drug uptake (HeLa [2]): Active
